Tests used:
patient melanoma cells = assay: Viability test with CRO15, patient melanoma cells; assay type: cell-based, human; conditions: 5 μM, 48 hours; FIG. 1D
Method: (§1) Fresh sterile tissues were obtained from surgical waste from patients diagnosed with metastatic melanoma at the Nice CHU hospital. Epidermal cell suspensions were obtained from foreskins of Caucasian children by overnight digestion in phosphate-buffered saline containing 0.5% dispase grade II at 4° C., followed by a 20 min digestion with 0.05% trypsin-0.02% EDTA in phosphate-buffered saline (V/V) at 37° C. Human primary melanocytes were grown in MCDB153 medium supplemented with 2% FCS, 0.4 μg/ml hydrocortisone, 5 μg/ml insulin, 16 nM phorbol-12 myristate 13-acetate, 1 ng/ml basic fibroblast growth factor, 10 μg/ml bovine pituitary extract and penicillin/streptomycin (100 U/ml/50 μg/ml). […]
(§2) For trypan blue staining, […] of cells (melanoma and normal human cells) were aseptically transferred to a 1.5 mL clear Eppendorf tube and incubated for 3 min at room temperature with an equal volume of 0.4% trypan blue solution. Viable cells were counted and the results are expressed as the percentage of the value of control cells. […]
(§3) Different melanoma cell lines with various mutations, patient cells with various mutations and normal human cells, were treated with 5 μM of CRO15 for 48 hours or DMSO (Control). At the end of stimulation, viable cells were counted using the trypan blue dye exclusion method. […]

normal human cells = assay: Viability test with CRO15, normal human cells; assay type: cell-based; conditions: 5 μM, 48 hours; FIG. 1E
Method: as §1, §2, §3

[1] = system: A375 sensitive melanoma cells; assay: In vivo murine cancer model, A375 sensitive xenograft; set-up: species or system BALB/c nu/nu (nude) mice; conditions: 0.7 mg/mouse/day intraperitoneal
Method: (§4) Animal experiments were carried out in accordance with the Declaration of Helsinki and were approved by a local ethical committee CIEPAL (Comité Institutionnel d'Ethique Pour l'Animal de Laboratoire-Azur). Female immune-deficient BALB/c nu/nu (nude) mice were obtained at 5 weeks of age from Envigo Laboratory (Gannat, France). Nude mice were inoculated subcutaneously with A375 sensitive or resistant melanoma cells (1.0×10^6 cells/mouse). After tumor apparition (±5 days), animals received intraperitoneal injection of Labrafil (Control), PLX4032 (0.7 mg/mouse/day) or CRO15 (0.7 mg/mouse/day) dissolved in Labrafil. The growth tumor curves were determined by measuring the tumor volume using the equation V=(L*W2)/2 (V=tumor volume, W=tumor width, L=tumor length). At the end of the experiment, mice were euthanized by cervical dislocation and tumors were taken for western blot and immunofluorescence experiments (LC3, Cleaved Caspase 3). TUNEL assay was performed using the In Situ Cell Death Detection Kit (Roche, Meylan, France). The results are shown in FIGS. 3A and 3B (A375 sensitive melanoma cells), and 4B and 4C (A375 resistant melanoma cells).

[2] = system: A375 resistant melanoma cells; assay: In vivo murine cancer model, A375 resistant xenograft; set-up: species or system BALB/c nu/nu (nude) mice; conditions: 0.7 mg/mouse/day intraperitoneal
Method: as §4
In Vivo Murine Cancer Model Animal experiments were carried out in accordance with the Declaration of Helsinki and were approved by a local ethical committee CIEPAL (Comite Institutionnel d'Ethique Pour l'Animal de Laboratoire-Azur). Female immune-deficient BALB/c nu/nu (nude) mice were obtained at 5 weeks of age from Envigo Laboratory (Gannat, France). Nude mice were inoculated subcutaneously with A375 resistant melanoma cells (1.0×10^6 cells/mouse). After tumor apparition (+5 days), animals received intraperitoneal injection of Labrafil (Control), PLX4032 (0.7 mg/mouse/day) or MTF319 (0.7 mg/mouse/day) dissolved in Labrafil. The growth tumor curves were determined by measuring the tumor volume using the equation V=(L*W2)/2 (V=tumor volume, W=tumor width, L=tumor length). At the end of the experiment, mice were euthanized by cervical dislocation.

murine melanoma BP cells = assay: Murine melanoma BP cells allografted into C57BL6 mice; assay type: in vivo, C57BL6/J mice; conditions: BP cells allograft, immunocompetent C57BL/6, 0.7 mg/mouse/day intraperitoneal; FIG. 7A
Method: In Vivo Murine Cancer Model Animal experiments were carried out in accordance with the Declaration of Helsinki and were approved by a local ethical committee CIEPAL (Comite Institutionnel d'Ethique Pour l'Animal de Laboratoire-Azur). Female C57BL6/J mice were obtained at 5 weeks of age from Envigo Laboratory (Gannat, France). Mice were inoculated subcutaneously with BP melanoma cells (1×10^6 cells/mouse). After tumor apparition (+5 days), animals received intraperitoneal injection of Labrafil (vehicle) or CRO15 (0.7 mg/mouse/day). The growth tumor curves were determined by measuring the tumor volume using the equation V=(L*W2)/2, (V=tumor volume, W=tumor width, L=tumor length). At the end of the experiment, mice were euthanized by cervical dislocation.

In the case of `Nc1nc(Nc2ccccc2SSc2ccccc2Nc2nc(N)nc(C(Cl)(Cl)Cl)n2)nc(C(Cl)(Cl)Cl)n1` [CRO15, N2,N2′-(disulfanediylbis(2,1-phenylene))bis(6-(trichloromethyl)-1,3,5-triazine-2,4-diamine)], the “viability of patient melanoma cells” value (patient melanoma cells) is reported as “induces a decrease of the viability”, the “viability of normal cells (toxicity)” value (normal human cells) is reported as “not toxic for normal cells” and the tumor volume ([1]; FIG. 3A) is reported as “reduces”. For the same molecule, the tumor weight ([1]; FIG. 3B) was “reduces”, the tumor volume ([2]; FIG. 4B, 6A) was “reduces” and the tumor weight ([2]; FIG. 4C, 6B) was “reduces”. For the same molecule, the “tumor growth (tumor volume)” value (murine melanoma BP cells) was “no tumor growth”.

Source: patent US11440906B2, “Biguanide derivatives and their rearrangement products for use in the treatment of cancer” (CENTRE NATIONAL DE LA RECHERCHE SCIENTIFIQUE, priority 2017, dated 2022)
